Source: patent US20090156674A1, “Valnemulin Salts with Organic Acids” (priority 2005, published 2009)
Counter-ions that a name gives are not always drawn.

Experiments:
[1] = Stability of valnemulin during production and storage of feed pellets (background statements); type: physicochemical
Text: It has been shown that valnemulin is rather unstable when producing pelleted feed, particularly when in contact with the feed material, especially constituents of vegetable or animal origin. This leads to substantial losses already at the preparation stage. In the preparation of pelleted feed, the dried organic starting material of animal or vegetable origin is ground, mixed intimately with the admixtures, vitamins, trace elements and other additives, i.e. substantially homogenized, and then optionally moistened with ca. 5 to 10% by weight water and compressed into feed pellets at elevated temperatures ranging from ca. 60 to 100° C. at pressures of ca. 1 to 100 kbar. Short-term, local temperature peaks in the press, so-called flashes, even reach 200° C. for a short time. The retention time of the mass in the press is generally from ca. 5 to 180 seconds and depends inter alia on the size of the pellets.
Whereas valnemulin in the form of the dried, amorphous hydrochloride salt withstands these temperatures for a short time without significant decomposition and can be stored at room temperature even for a few months without any measurable loss of active ingredient, this active ingredient decomposes relatively rapidly under pressure and in intimate contact with animal or vegetable feed constituents and at the prevailing elevated temperatures. […]

[2] = Stability of valnemulin acid addition salts in the pelleting procedure for animal feed; type: physicochemical; details: pelleting at 75° C.; wheat-based animal feed; 100 ppm valnemulin in the feed
Procedure: In order to test the stability of the valnemulin acid addition salts in animal feed, the calculated amount of the acid addition salt (corresponding to a target dose of 100 ppm) is added to ca. 4 kg of wheat-based animal feed and mixed in a high-speed laboratory mixer for 60 seconds to form a first premix (PM1). The ca. 4 kg of premix PM1 is then transferred to a horizontal mixer and mixed with 21 kg of the same feed for a further 6 minutes to form a further premix (PM2). The ca. 25 kg of premix PM2 is transferred to a vertical mixer and intimately mixed with a further 175 kg of the same animal feed for 8 minutes, whereupon a homogeneous, treated mixture is obtained, which contains valnemulin concentrations corresponding to the target dose of 100 ppm. Prior to further processing, samples of ca. 100 g each are taken from the upper, centre and lower part of the medicinal feed mixture, in order to test its homogeneity. In addition, further samples are taken randomly for use in stability tests. The finished, treated medicinal feed is now ready for pelleting. […] The 200 kg of finished medicinal feed is then fed continuously into the pelleting press of the feed mill over the course of ca. 20 mins. Afterwards, the pellets are dried in batches in a continuous stream of air, and cooled. To examine the homogeneity of the pelleted medicinal feed, several samples of ca. 100 g each are taken at the start, middle and end of the pelleting process. In addition, samples are taken in a random order from each batch, in order to test the stability in storage. […] In the following table 1, by way of example, the stabilities of different acid addition salts of valnemulin in the pelleting procedure for the animal feed are compared.

| content of active ingredient in finished pellets on storage ([1]; finished pellets, room temperature, after three months) | active ingredient lost in compression into feed pellets ([1]; raised pressure and elevated temperature kept as short as possible, pellets immediately cooled to room temperature, contact with feed constituents) | Loss of active substance in the pelleting procedure, average loss [2] [%] | Compound |
| --- | --- | --- | --- |
| below 60% | one quarter to one third | – | C=C[C@]1(C)C[C@@H](OC(=O)CSC(C)(C)CNC(=O)C(N)C(C)C)[C@]2(C)C(C)CC[C@]3(CCC(=O)C32)[C@@H](C)[C@@H]1O (some centres unmarked) [valnemulin, Valnemulin] |
| – | – | 0.3 | C=CC1(C)CC(OC(=O)CSC(C)(C)CNC(=O)C(N)C(C)C)C2(C)C(C)CCC3(CCC(=O)C32)C(C)C1O.O=C(O)C(O)C(O)C(=O)O [valnemulin D-hydrogen tartrate, Valnemulin D-Hydrogen Tartrate] |
| – | – | 0.2 | C=C[C@]1(C)C[C@@H](OC(=O)CSC(C)(C)CNC(=O)[C@H](N)C(C)C)[C@]2(C)[C@H](C)CC[C@]3(CCC(=O)[C@H]32)[C@@H](C)[C@@H]1O.O=C(O)/C=C/C(=O)O [valnemulin hydrogen fumarate, Valnemulin Hydrogen Fumarate] |
| – | – | 11.6 | C=C[C@]1(C)C[C@@H](OC(=O)CSC(C)(C)CNC(=O)[C@H](N)C(C)C)[C@]2(C)[C@H](C)CC[C@]3(CCC(=O)[C@H]32)[C@@H](C)[C@@H]1O [valnemulin hydrochloride] |
